Test results taken from patent publication US4361511A, “Benzodiazepine derivatives” (Hoffmann-La Roche Inc., priority 1980, dated 1982).

Assays:
[1] = test system: adrenalectomised rats treated with aldosterone; assay: aldosterone-antagonistic activity in adrenalectomised rats (urine volume, sodium and potassium excretion over 3 hours); assay type: in vivo, Female Holtzmann rats; details: for (K+) potassium excretion in %, based on control animals / (Na+) sodium excretion in %, based on control animals / Volume (urine volume) in %, based on control animals: 1 mg/kg p.o., aldosterone 4 mmg/kg s.c. 30 min later, vs animals treated only with aldosterone, urine collected 3 h
Method: If compounds of formula I are administered to the animals before the treatment with aldosterone, then there is observed, in comparison to animals treated only with aldosterone (control animals), a pronounced increase of the sodium excretion (i.e. the sodium retention caused by aldosterone is antagonised), whereas the potassium excretion and the urine volume are influenced to a lesser extent.
The standard experiment is carried out as follows:
Female Holtzmann rats (150-180 g) are bilaterally adrenalectomised 70 to 74 hours before the beginning of the experiment. After the operation, the animals receive a customary rat dry feed and 0.9 percent sodium chloride solution for drinking. 16 to 17 hours before the beginning of the experiment the feed is removed from the animals, but they can subsequently drink, as before, 0.9 percent sodium chloride solution ad libitum. At the beginning of the experiment the substance to be tested as an aldosterone-antagonist is administered to the animals by means of a stomach probe. 30 minutes later the animals receive a subcutaneous injection of 4 mmg/kg of aldosterone. After a further 90 minutes, the urinary bladders of the animals are emptied by careful suprapubic pressure, whereupon the animals are placed individually in metabolic cages without food and without drink. The urine of the animals is then collected for 3 hours, whereupon their urinary bladders are once more emptied. The spontaneously excreted urine and the remaining urine obtained at the conclusion of the experiment by pressing-out the urinary bladders are collected in graduated centrifuge glasses. Sodium and potassium concentrations in the urine are determined with a flame photometer.
(§1) The following Table contains results obtained in the previously described experiment with representative compounds of formula I. In this Table there are given for each compound in question the dosage administered (in mg/kg p.o.) as well as the percentage variation in the urine volume), the sodium excretion and the potassium excretion in comparison with the control animals (i.e. in comparison with the animals treated only with aldosterone). Moreover, the Table contains data relating to the acute toxicity of the compounds investigated (LD 50 in mg/kg in the case of a single oral administration to mice).

[2] = acute toxicity, single oral administration to mice; details: mouse, in vivo
Text: as §1

[3] = in comparison to untreated animals

SMILES | (K+) potassium excretion in %, based on control animals [1] | (Na+) sodium excretion in %, based on control animals [1] | Volume (urine volume) in %, based on control animals [1] | LD50 [2] | excreted urine volume after aldosterone alone [1, 3] | potassium excretion after aldosterone alone [1, 3] | sodium excretion after aldosterone alone [1, 3]
CN(C)C(=O)Nc1c(Cl)cc2c(c1Cl)C(c1ccccc1F)=NCC(=O)N2C [Example 4, 3-[6,8-dichloro-5-(o-fluorophenyl)-2,3-dihydro-1-methyl-2-oxo-1H-1,4-benzodiazepin-7-yl]-1,1-dimethylurea] | 160% | 330% | 152% | 2500 mg/kg | – | – | –
CN1C(=O)CN=C(c2ccccc2F)c2c1cc(Cl)c(NC(=O)N1CCN(CCO)CC1)c2Cl [Example 5, N-[6,8-dichloro-5-(o-fluorophenyl)-2,3-dihydro-1-methyl-2-oxo-1H-1,4-benzodiazepin-7-yl]-4-(2-hydroxyethyl)-1-piperazinecarboxamide] | 120% | 300% | 173% | > 5000 mg/kg | – | – | –
CN1C(=O)CN=C(c2ccccc2F)c2c1cc(Cl)c(NC(=O)NCCN1CCOCC1)c2Cl [Example 6, 1-[6,8-dichloro-5-(o-fluorophenyl)-2,3-dihydro-1-methyl-2-oxo-1H-1,4-benzodiazepin-7-yl]-3-(2-morpholinoethyl)urea] | 91% | 254% | 183% | 5000 mg/kg | – | – | –
C[C@]12CCC(=O)C=C1CC[C@@H]1[C@@H]2[C@@H](O)C[C@]2(C=O)[C@@H](C(=O)CO)CC[C@@H]12 [aldosterone, reference compound] | – | – | – | – | reduction of the excreted urine volume | increased potassium excretion | pronounced reduction of the sodium excretion
